Experimental data reported in patent US7923554B2, “HIV inhibiting 1,2,4-triazin-6-one derivatives” (Janssen Pharmaceutica N.V., priority 2004, dated 2011).

tested on: not given; experiment: not given; settings: not given

| Structure (SMILES) | melting point [°C] |
| --- | --- |
| Cc1cc(CCC#N)cc(C)c1Nc1nc(Nc2ccc(C#N)cc2)c(=O)n(CC#N)n1 | 243 to 246 |
| N#Cc1ccc(Nc2nc(Nc3c(F)cc(I)cc3F)n[nH]c2=O)cc1 [Compound 1] | 287 to 290 |
| N#CCCc1cc(Br)c(Nc2n[nH]c(=O)c(Nc3ccc(C#N)cc3)n2)c(Br)c1 [Compound 2] | 339 to 340 |
| Cc1cc(CCC#N)cc(C)c1Oc1n[nH]c(=O)c(Nc2ccc(C#N)cc2)n1 [Compound 3] | 351 to 352 |
| Cc1cc(C)c(S(=O)(=O)c2n[nH]c(=O)c(Nc3ccc(C#N)cc3)n2)c(C)c1 [Compound 7] | 303 to 304 |
| Cc1cc(CCC#N)cc(C)c1Nc1nc(Nc2ccc(C#N)cc2)c(=O)n(C)n1 [Compound 9] | 317 to 320 |
| N#CCCn1nc(Nc2c(F)cc(Br)cc2F)nc(Nc2ccc(C#N)cc2)c1=O [Compound 11] | 246 to 247 |
| CCn1nc(Nc2c(C)cc(CCC#N)cc2C)nc(Nc2ccc(C#N)cc2)c1=O [Compound 15] | 243 to 245 |

tested on: HIV-1; experiment: not given; settings: not given

| Structure (SMILES) | pEC50 (-logEC50) |
| --- | --- |
| N#Cc1ccc(Nc2nc(Nc3c(F)cc(I)cc3F)n[nH]c2=O)cc1 [Compound 1] | 9.5 |
| Cc1cc(CCC#N)cc(C)c1Nc1n[nH]c(=O)c(Nc2ccc(C#N)cc2)n1 [Compound 5] | 9.6 |
| Cc1cc(C)c(Sc2n[nH]c(=O)c(Nc3ccc(C#N)cc3)n2)c(C)c1 [Compound 6] | 7.8 |
| Cc1cc(C)c(S(=O)(=O)c2n[nH]c(=O)c(Nc3ccc(C#N)cc3)n2)c(C)c1 [Compound 7] | 7.7 |
| Cn1nc(Nc2c(Br)cc(CCC#N)cc2Br)nc(Nc2ccc(C#N)cc2)c1=O [Compound 8] | 10.0 |
| N#CCCn1nc(Nc2c(F)cc(Br)cc2F)nc(Nc2ccc(C#N)cc2)c1=O [Compound 11] | 9.1 |
| CCn1nc(Nc2c(C)cc(CCC#N)cc2C)nc(Nc2ccc(C#N)cc2)c1=O [Compound 15] | 9.7 |
| N#Cc1ccc(Nc2nc(Nc3c(F)cc(Br)cc3F)n[nH]c2=O)cc1 [Compound 30] | 9.2 |
| Cc1cc(CCC#N)cc(C)c1Nc1n[nH]c(=O)c(Nc2ccc(C#N)cc2)n1 [Compound 32] | 8.9 |
| N#CCCn1nc(Nc2c(F)cc(Br)cc2F)nc(Nc2ccc(C#N)cc2)c1=O [Compound 34] | 8.5 |
| N#Cc1ccc(Nc2nc(Nc3c(F)cc(I)cc3F)n[nH]c2=O)cc1 [Compound 36] | 9.9 |
| Cc1cc(C)c(Sc2n[nH]c(=O)c(Nc3ccc(C#N)cc3)n2)c(C)c1 [Compound 41] | 9.7 |
| Cc1cc(CCC#N)cc(C)c1Nc1n[nH]c(=O)c(Nc2ccc(C#N)cc2)n1 [Compound 51] | 9.6 |
| Cc1cc(C)c(S(=O)(=O)c2n[nH]c(=O)c(Nc3ccc(C#N)cc3)n2)c(C)c1 [Compound 52] | 8.8 |
| Cn1nc(Nc2c(Br)cc(CCC#N)cc2Br)nc(Nc2ccc(C#N)cc2)c1=O [Compound 55] | 9 |
| COc1cc(CCC#N)c(Br)cc1Nc1n[nH]c(=O)c(Nc2ccc(C#N)cc2)n1 [Compound 67] | 9.0 |

tested on: HIV-1; experiment: microbe, parasite or virus in culture; settings: Human immunodeficiency virus 1, MT4, read-out: pEC50 (-logEC50) (converted)
Method: A rapid, sensitive and automated assay procedure was used for the in vitro evaluation of anti-HIV agents. […] In these cells, engineered with GFP (and an HIV-specific promotor), ongoing HIV-infection was measured fluorometrically. Cytotoxicity is measured in the same cells, but engineered with GFP under a constitutional promotor. The infection (or inhibition thereof) of HIV infected cells and the fluorescence of mock-infected cells is assessed by the fluorescent GFP signal generated by the two above mentioned cell lines.

| Structure (SMILES) | EC50 [pM] |
| --- | --- |
| N#CCCc1cc(Br)c(Nc2n[nH]c(=O)c(Nc3ccc(C#N)cc3)n2)c(Br)c1 [Compound 2] | 100 |
| Cc1cc(CCC#N)cc(C)c1Oc1n[nH]c(=O)c(Nc2ccc(C#N)cc2)n1 [Compound 3] | 631 |
| Cc1cc(/C=C/C#N)cc(C)c1Nc1n[nH]c(=O)c(Nc2ccc(C#N)cc2)n1 [Compound 4] | 631 |
| Cc1cc(CCC#N)cc(C)c1Nc1nc(Nc2ccc(C#N)cc2)c(=O)n(C)n1 [Compound 9] | 501 |
| N#Cc1ccc(Nc2nc(Nc3c(F)cc(Br)cc3F)n[nH]c2=O)cc1 [Compound 10] | 316 |
| Cc1cc(CCC#N)cc(C)c1Nc1nc(Nc2ccc(C#N)cc2)c(=O)n(CCO)n1 [Compound 14] | 316 |
| Cc1cc(C)c(Nc2nc(Nc3ccc(C#N)cc3)n[nH]c2=O)c(C)c1 [Compound 16] | 1000 |
| Cn1nc(Nc2c(Cl)cc(CCC#N)cc2Cl)nc(Nc2ccc(C#N)cc2)c1=O [Compound 17] | 1000 |
| Cc1cc(C)c(Nc2nc(Nc3ccc(C#N)cc3)nn(C)c2=O)c(C)c1 [Compound 18] | 12600 |
| N#CCCc1cc(Cl)c(Nc2n[nH]c(=O)c(Nc3ccc(C#N)cc3)n2)c(Br)c1 [Compound 19] | 6310 |
| Cc1cc(C)c(Sc2nc(Nc3ccc(C#N)cc3)n[nH]c2=O)c(C)c1 [Compound 20] | 631 |
| Cn1nc(Nc2c(Cl)cc(CCC#N)cc2Br)nc(Nc2ccc(C#N)cc2)c1=O [Compound 21] | 1000 |
| Cc1cc(C)c(Sc2nc(Nc3ccc(C#N)cc3)nn(C)c2=O)c(C)c1 [Compound 22] | 15800 |
| Cc1cc(C)c(Nc2n[nH]c(=O)c(Nc3ccc(C#N)cc3)n2)c(C)c1 [Compound 23] | 794 |
| N#C/C=C/c1cc(Cl)c(Nc2n[nH]c(=O)c(Nc3ccc(C#N)cc3)n2)c(Cl)c1 [Compound 24] | 631 |
| N#C/C=C/c1cc(Cl)c(Nc2n[nH]c(=O)c(Nc3ccc(C#N)cc3)n2)c(Br)c1 [Compound 25] | 631 |
| N#C/C=C/c1cc(Br)c(Nc2n[nH]c(=O)c(Nc3ccc(C#N)cc3)n2)c(Br)c1 [Compound 26] | 631 |
| Cc1cc(/C=C/C#N)cc(C)c1Nc1nc(Nc2ccc(C#N)cc2)n[nH]c1=O [Compound 27] | 200 |
| Cc1cc(/C=C/C#N)cc(C)c1Nc1nc(Nc2ccc(C#N)cc2)nn(C)c1=O [Compound 28] | 3980 |
| COc1cc(/C=C/C#N)cc(C)c1Nc1n[nH]c(=O)c(Nc2ccc(C#N)cc2)n1 [Compound 29] | 316000 |
| Cc1cc(CCC#N)cc(C)c1Nc1nc(Nc2ccc(C#N)cc2)c(=O)n(CC#N)n1 [Compound 31] | 316 |
| Cc1cc(CCC#N)cc(C)c1Nc1nc(Nc2ccc(C#N)cc2)c(=O)n(CC(N)=O)n1 [Compound 33] | 631 |
| COc1cc(C)c(Nc2nc(Nc3ccc(C#N)cc3)c(=O)n(C)n2)c(C)c1 [Compound 35] | 10000 |
| CCn1nc(Nc2c(C)cc(CCC#N)cc2C)nc(Nc2ccc(C#N)cc2)c1=O [Compound 37] | 126 |
| N#C/C=C/c1cc(F)c(Nc2n[nH]c(=O)c(Nc3ccc(C#N)cc3)n2)c(F)c1 [Compound 38] | 126 |
| COc1cc(CCC#N)cc(C)c1Nc1n[nH]c(=O)c(Nc2ccc(C#N)cc2)n1 [Compound 39] | 100 |
| CCn1nc(Nc2c(C)cc(CCC#N)cc2OC)nc(Nc2ccc(C#N)cc2)c1=O [Compound 40] | 316 |

| Structure (SMILES) | EC50 [pM] |
| --- | --- |
| COc1cc(/C=C/C#N)cc(C)c1Nc1nc(Nc2ccc(C#N)cc2)c(=O)n(C)n1 [Compound 42] | 398 |
| Cc1cc(C)c(Sc2nc(Nc3ccc(C#N)cc3)c(=O)n(C)n2)c(C)c1 [Compound 43] | 316 |
| Cc1cc(C#N)cc(C)c1Nc1nc(Nc2ccc(C#N)cc2)c(=O)n(C)n1 [Compound 46] | 251 |
| COc1cc(CCC#N)cc(C)c1Nc1nc(Nc2ccc(C#N)cc2)c(=O)n(CCO)n1 [Compound 47] | 794 |
| Cc1cc(C#N)cc(C)c1Oc1n[nH]c(=O)c(Nc2ccc(C#N)cc2)n1 [Compound 48] | 398 |
| N#CCCc1cc(Br)c(Nc2n[nH]c(=O)c(Nc3ccc(C#N)cc3Br)n2)c(Br)c1 [Compound 49] | 316 |
| Cc1cc(C#N)cc(C)c1Oc1nc(Nc2ccc(C#N)cc2)c(=O)n(C)n1 [Compound 50] | 158 |
| Cc1cc(CCC#N)cc(C)c1Oc1nc(Nc2ccc(C#N)cc2)c(=O)n(CC#N)n1 [Compound 53] | 398 |
| CCn1nc(Nc2c(C)cc(/C=C/C#N)cc2C)nc(Nc2ccc(C#N)cc2)c1=O [Compound 54] | 75900 |
| Cc1cc(CCC#N)cc(C)c1Oc1nc(Nc2ccc(C#N)cc2)c(=O)n(C)n1 [Compound 56] | 631 |
| N#CCCc1cc(Cl)c(Nc2n[nH]c(=O)c(Nc3ccc(C#N)cc3)n2)c(Cl)c1 [Compound 58] | 3160 |
| Cc1cc(/C=C/C#N)cc(C)c1Oc1n[nH]c(=O)c(Nc2ccc(C#N)cc2)n1 [Compound 59] | 1260 |
| Cc1cc(/C=C/C#N)cc(C)c1Oc1nc(Nc2ccc(C#N)cc2)c(=O)n(C)n1 [Compound 60] | 2510 |
| Cc1cc(/C=C/C#N)cc(C)c1Oc1nc(Nc2ccc(C#N)cc2)c(=O)n(CC#N)n1 [Compound 61] | 1260 |
| Cc1cc(/C=C/C#N)cc(C)c1Oc1nc(Nc2ccc(C#N)cc2)c(=O)n(CCO)n1 [Compound 62] | 316 |
| COc1cc(CCC#N)c(Br)cc1Nc1n[nH]c(=O)c(Nc2ccc(C#N)cc2)n1 [Compound 67] | 1510 |
| C/C(C#N)=C\c1cc(C)c(Nc2n[nH]c(=O)c(Nc3ccc(C#N)cc3)n2)c(C)c1 [Compound 68] | 1200 |
| CCn1nc(Oc2c(C)cc(CCC#N)cc2C)nc(Nc2ccc(C#N)cc2)c1=O [Compound 69] | 891 |
| Cc1cc(CCC#N)cc(C)c1Oc1nc(Nc2ccc(C#N)cc2)c(=O)n(CCO)n1 [Compound 70] | 794 |
| COc1cc(/C=C/C#N)cc(Cl)c1Nc1n[nH]c(=O)c(Nc2ccc(C#N)cc2)n1 [Compound 71] | 794 |
| COc1cc(CCC#N)cc(Cl)c1Nc1nc(Nc2ccc(C#N)cc2)c(=O)n(C)n1 [Compound 72] | 631 |
| CCn1nc(Nc2c(Cl)cc(CCC#N)cc2OC)nc(Nc2ccc(C#N)cc2)c1=O [Compound 73] | 631 |
| COc1cc(CCC#N)cc(Cl)c1Nc1nc(Nc2ccc(C#N)cc2)c(=O)n(CCO)n1 [Compound 74] | 794 |
| COc1cc(CCC#N)cc(Cl)c1Nc1nc(Nc2ccc(C#N)cc2)c(=O)n(CC#N)n1 [Compound 75] | 794 |
| C/C(=C\C#N)c1cc(C)c(Nc2n[nH]c(=O)c(Nc3ccc(C#N)cc3)n2)c(C)c1 [Compound 77] | 794 |
| C/C(=C\C#N)c1cc(C)c(Nc2nc(Nc3ccc(C#N)cc3)c(=O)n(C)n2)c(C)c1 [Compound 78] | 794 |
